Reference: ChEMBL document CHEMBL1255330, “Efficacy of SPK-843, a novel polyene antifungal, in a murine model of systemic cryptococcosis” (Antimicrob Agents Chemother, 2008)
Values after ≈ are worked out from the molar mass of the structure shown. Active and inactive are the calls of the source. No cut-off for these calls is given here.

Legend:
Cryptococcus neoformans [1] = assay: Antifungal activity against Cryptococcus neoformans YC-11 by microdilution method; assay type: functional
Cryptococcus neoformans [2] = assay: Antifungal activity against Cryptococcus neoformans YC-11 infected in BALB/c mouse assessed as increase in mouse survival at 0.5 mg/kg, iv qd for 5 days; assay type: functional, organism-based; design: dose 0.5 mg/kg
Cryptococcus neoformans [3] = assay: Antifungal activity against Cryptococcus neoformans YC-11 infected in BALB/c mouse assessed as increase in mouse survival at 0.7 mg/kg, iv qd for 5 days; assay type: functional, organism-based; design: dose 0.7 mg/kg
Cryptococcus neoformans [4] = assay: Antifungal activity against Cryptococcus neoformans YC-11 infected in BALB/c mouse kidney assessed as reduction in fungal induced tubular cell necrosis at 0.7 mg/kg, iv treated qd for 5 days measured after 7 days of infection by histopathological analysis; assay type: functional, organism-based; design: dose 0.7 mg/kg
Cryptococcus neoformans [5] = assay: Antifungal activity against Cryptococcus neoformans YC-11 infected in BALB/c mouse liver assessed as reduction in fungal induced liver damage at 4 mg/kg, iv qd for 5 days measured after 7 days of infection by histopathological analysis; assay type: functional, organism-based; design: dose 4 mg/kg
Cryptococcus neoformans [6] = assay: Antifungal activity against Cryptococcus neoformans YC-11 infected in BALB/c mouse liver assessed as reduction in fungal induced liver damage at 0.7 mg/kg, iv qd for 5 days measured after 7 days of infection by histopathological analysis; assay type: functional, organism-based; design: dose 0.7 mg/kg
Cryptococcus neoformans [7] = assay: Antifungal activity against Cryptococcus neoformans YC-11 infected in BALB/c mouse assessed as increase in mouse survival at 1 mg/kg, iv qd for 5 days; assay type: functional, organism-based; design: dose 1 mg/kg
Cryptococcus neoformans [8] = assay: Antifungal activity against Cryptococcus neoformans YC-11 infected in BALB/c mouse assessed as increase in mouse survival at 4 mg/kg, iv qd for 5 days; assay type: functional, organism-based; design: dose 4 mg/kg
Cryptococcus neoformans [9] = assay: Antifungal activity against Cryptococcus neoformans YC-11 infected in BALB/c mouse assessed as reduction in fungal burden in brain at 1 mg/kg, iv qd for 5 days measured after 7 days of infection; assay type: functional
Cryptococcus neoformans [10] = assay: Antifungal activity against Cryptococcus neoformans YC-11 infected in BALB/c mouse assessed as reduction in fungal burden in brain at 4 mg/kg, iv treated qd for 5 days measured after 7 days of infection; assay type: functional
Cryptococcus neoformans [11] = assay: Antifungal activity against Cryptococcus neoformans YC-11 infected in BALB/c mouse brain assessed as reduction in fungal induced abscesses at 4 mg/kg, iv qd for 5 days measured after 7 days of infection by histopathological analysis; assay type: functional, organism-based; design: dose 4 mg/kg
Cryptococcus neoformans [12] = assay: Antifungal activity against Cryptococcus neoformans YC-11 infected in BALB/c mouse brain assessed as reduction in multiple fungal induced abscesses at 1 mg/kg, iv qd for 5 days measured after 7 days of infection by histopathological analysis; assay type: functional, organism-based; design: dose 1 mg/kg
Cryptococcus neoformans [13] = assay: Antifungal activity against Cryptococcus neoformans YC-11 infected in BALB/c mouse brain assessed as reduction in multiple fungal induced abscesses at 2 mg/kg, iv qd for 5 days measured after 7 days of infection by histopathological analysis; assay type: functional, organism-based; design: dose 2 mg/kg
Mus musculus = assay: Toxicity in BALB/c mouse at 4 mg/kg, iv; assay type: organism-based; design: dose 4 mg/kg, route intravenous; conditions: in vivo
Cryptococcus neoformans [14] = assay: Antifungal activity against Cryptococcus neoformans YC-11 infected in BALB/c mouse assessed as reduction in fungal burden in brain at 2 mg/kg, iv qd for 5 days measured after 7 days of infection; assay type: functional
Cryptococcus neoformans [15] = assay: Antifungal activity against Cryptococcus neoformans YC-11 infected in BALB/c mouse assessed as increase in mouse survival at 80 mg/kg, iv qd for 5 days; assay type: functional, organism-based; design: dose 80 mg/kg
Cryptococcus neoformans [16] = assay: Antifungal activity against Cryptococcus neoformans YC-11 infected in BALB/c mouse assessed as reduction in fungal burden in brain at 20 mg/kg, iv qd for 5 days measured after 7 days of infection; assay type: functional
Cryptococcus neoformans [17] = assay: Antifungal activity against Cryptococcus neoformans YC-11 infected in BALB/c mouse assessed as reduction in fungal burden in brain at 80 mg/kg, iv qd for 5 days measured after 7 days of infection; assay type: functional
Cryptococcus neoformans [18] = assay: Antifungal activity against Cryptococcus neoformans YC-11 infected in BALB/c mouse brain assessed as reduction in multiple fungal induced abscesses at 80 mg/kg, iv qd for 5 days measured after 7 days of infection by histopathological analysis; assay type: functional, organism-based; design: dose 80 mg/kg
Cryptococcus neoformans [19] = assay: Antifungal activity against Cryptococcus neoformans YC-11 infected in BALB/c mouse assessed as reduction in fungal burden in brain at 40 mg/kg, iv qd for 5 days measured after 7 days of infection; assay type: functional

Row | SMILES | MIC (Cryptococcus neoformans [1]) | Activity (Cryptococcus neoformans [2]) | Activity (Cryptococcus neoformans [3]) | Activity (Cryptococcus neoformans [4]) | Activity (Cryptococcus neoformans [5]) | Activity (Cryptococcus neoformans [6]) | Activity (Cryptococcus neoformans [7]) | Activity (Cryptococcus neoformans [8]) | log10cfu (Cryptococcus neoformans [9]) | log10cfu (Cryptococcus neoformans [10]) | Activity (Cryptococcus neoformans [11]) | Activity (Cryptococcus neoformans [12]) | Activity (Cryptococcus neoformans [13]) | Activity (Mus musculus) | log10cfu (Cryptococcus neoformans [14]) | Activity (Cryptococcus neoformans [15]) | log10cfu (Cryptococcus neoformans [16]) | log10cfu (Cryptococcus neoformans [17]) | Activity (Cryptococcus neoformans [18]) | log10cfu (Cryptococcus neoformans [19])
1 | C[C@@H]1[C@H](O)[C@@H](C)/C=C/C=C/C=C/C=C/C=C/C=C/C=C/[C@H](O[C@@H]2O[C@H](C)[C@@H](O)[C@H](N)[C@@H]2O)C[C@@H]2O[C@](O)(C[C@@H](O)C[C@@H](O)[C@H](O)CC[C@@H](O)C[C@@H](O)CC(=O)O[C@H]1C)C[C@H](O)[C@H]2C(=O)O [AMPHOTERICIN B] | 0.25 µg/mL (≈ 0.271 µM) | Active | Active | inactive | Active | Active |  |  |  |  |  |  |  |  |  |  |  |  |  | 
2 | CNc1ccc(C(=O)CC(O)CC[C@H](C)[C@H]2OC(=O)C[C@H](O)CC(=O)C[C@H](O)C[C@H](O)C[C@H](O)C[C@H](O)C[C@]3(O)C[C@H](O)[C@@H](C(=O)NCCN(C)C)C(C[C@@H](OC4O[C@H](C)[C@@H](O)[C@H](NC(=O)CN(C)C)[C@@H]4O)/C=C/C=C/C=C/C=C\C=C/C=C/C=C/[C@@H]2C)O3)cc1.O=C1O[C@H]([C@H](O)CO)C(O)=C1O (some centres not stated) | 0.125 µg/mL |  |  |  |  |  | Active | Active | 7.42 | 3.45 | Active | inactive | inactive | Non-toxic | 6.44 |  |  |  |  | 
3 | OC(Cn1cncn1)(Cn1cncn1)c1ccc(F)cc1F [FLUCONAZOLE] | 2 µg/mL (≈ 6.53 µM) |  |  |  |  |  |  |  |  |  |  |  |  |  |  | Active | 7.03 | 6.34 | inactive | 6.71
